This note sets out measurements from patent publication US20140186329A1, “POLYPHENOL ANALOGS TO TREAT ISCHEMIA” (priority 2011, published 2014).

Read-outs that look alike come from different tables or passages of the source.

The subject of assay [1] is HT22 cells. Nature of the assay: In vitro ischemia assay (HT22 cell IAA assay, MTT). The conditions noted are these: for percent protection from IAA-induced cell death at 0.1 µM: HT-22, compound 100 nM. It is filed as cell-based, mouse. In a few lines: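 Mouse HT22 hippocampal cells in DMEM/7.5% DFCS exposed 2 hr to 20 μM iodoacetic acid with or without derivative, then 20 hr in IAA-free medium still containing derivative. Viability by MTT (2.5 μg/ml, 4 hr, 37 °C), absorbance at 570 nm.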

Assay [2] deals with primary mouse cortical neurons. Briefly: Primary cortical cell glutamate excitotoxicity assay. It is filed as cell-based. The settings on record: 10 μM glutamate, compound 100 nM. The protocol: (§1) FIG. 5 illustrates pharmacological effects of Baicalein on cultured cells. (A) Trophic factor withdrawal. Primary cortical neurons are prepared from 18-day-old rat embryos, and cultured at low cell density 1×10^6/35 mm dish, in serum containing medium with Baicalein (10-10,000 nM), and viability assayed 2 days later using a live-dead assay. (B) Excitotoxicity assay was done with E14 mouse primary cortical neuron cultures. After 11 days of culture, cells were exposed to 10 μM glutamate for 10 min, followed by the addition of varying concentrations of Baicalein (0.2-5 μM). Cell viability was determined 24 hr later with a standard MTT assay. (C) PC12 cells were glucose-deprived then were incubates in the absence or presence of Baicalein. Cell viability was determined 24 hr later using the MTT assay. (D) RCG-5 nerve cells were treated with 30 μM iodoacetic acid for 2 hr in the presence or absence of 5-25 μM Baicalein. In some experiments, Baicalein was added 2 hr after the ischemic event. Cell survival (%) was measured after 24 hr by the MTT assay. Baicalein added before (□) or 2 hr after ([…]) ischemia.
Primary cultures of cortical neurons that die due to excitotoxicity were prepared as described previously. Briefly, BALB/c mouse embryo cortices were minced and treated with 0.1% trypsin for 20 min. After centrifugation, the cells are resuspended in 827 Neurobasal medium (Invitrogen) plus 10% fetal calf serum and are dissociated by repeated pipetting through a 1 mL blue Eppendorf pipette tip. Then the cells are plated at 1×10^5 cells per well in 96-well poly-L-lysine and laminin-coated microtiter plates (Becton Dickinson, Bedford, Mass., USA) in 827 Neurobasal plus 10% fetal calf serum and 20% glial growth-conditioned medium. Two days later the medium is aspirated and replaced by serum-free 827 Neurobasal medium plus 10 μg/mL cytosine arabinoside. The cultures are used without media change 11 days after plating and are essentially free of astrocytes. They are exposed to 10 μM glutamate followed by varying concentrations of the compounds. Cell viability is determined 24 h later using the fluorescent live/dead assay. Glial conditioned medium is prepared from confluent rat astrocyte cultures. The cells are washed twice with serum-free medium and incubated for 2 days in serum-free Neurobasal medium to produce the growth conditioned medium.
(1) ≧80% cell survival in mouse HT22 hippocampal cells in the presence of 20 μM iodoacetic acid (IAA) (in vitro ischemia model). See, Maher, et al., Brain Res. 2007, 1173:117-25. (2) ≧35% cell survival in primary mouse cortical neurons in the presence of 10 μM glutamate (in vitro excitotoxicity assay). See, Ishige, et al., Free Radic Biol Med, 2001, 30(4): p. 433-46.

Assay [3] deals with PC12 cells. Briefly: Glucose starvation. It is filed as cell-based. The conditions noted are these: MTT 24 hr. As to the method: as §1, with “ischemia. […] When these cells are starved for glucose, there is approximately 70% maximal survival in the presence of NGF. Baicalein promotes over 80% survival (FIG. 5C).” for “ischemia.”
The subject of assay [4] is HT22 cells. Nature of the assay: Maintenance of total GSH in the presence of glutamate. It is filed as cell-based, mouse. The conditions noted are these: derivative 1-10 μM, 5 mM glutamate, 24 hr. Summed up:
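HT22 cells treated 24 hr with each derivative at 1-10 μM plus 5 mM glutamate, then extracts analysed for total GSH by chemical assay. Fisetin (10 μM) served as positive control.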

The subject of assay [5] is PC12 cells. Briefly: PC12 cell differentiation (neurite outgrowth). Type of assay: cell-based. The settings on record: N2 medium, derivative 1-10 μM, 24 hr, visual inspection. Summed up:
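PC12 cells in N2 medium were exposed to derivatives (1-10 μM) for 24 hr, with Fisetin (10 μM) as positive control. Cells counted as positive if bearing ≥1 neurite longer than one cell body diameter; 100 cells scored in each of three fields per treatment.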

A short description of assay [6]: TEAC, ABTS decolorization assay. The conditions noted are these: relative to Trolox. Summed up:
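Compound in ethanol added to persulfate-generated ABTS radical cation (OD ~0.7 at 734 nm); absorbance decrease followed at 734 nm for 4 min. TEAC is the slope of percent absorbance inhibition versus concentration divided by the corresponding Trolox slope.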

Where [7] appears, read: HT22 cells, 20 μM IAA, read-out: HT22 Cell IAA assay EC50.
The mark [8] stands for this setting: Mus musculus, HT-22, HT22 cells, 20 μM IAA, read-out: HT22 Cell IAA assay EC50.
Where [9] appears, read: Mus musculus, HT-22, HT22 cells, 20 μM IAA for 2 hr, viability after 24 hr by MTT, read-out: EC50 in vitro ischemia.

Regarding `CCc1ccc2oc(-c3ccc(O)c(O)c3)c(O)c(=O)c2c1` [PM-013, 2-(3,4-dihydroxyphenyl)-6-ethyl-3-hydroxy-4H-chromen-4-one], the EC50 (usually the midpoint of the concentration-response curve) with HT22 cells [1] (setting [7]) was 61 nM. Also, the percent protection from IAA-induced cell death at 0.1 µM in the assay on HT22 cells [1] (Mus musculus, 20 μM IAA) is 81%. Moreover, the “Primary Cortical Cell assay-Glutamate (% protection @ 100 nM)” value in assay [2] was 51%.
The corresponding values for `O=c1cc(-c2cc(O)c(O)c(O)c2)oc2ccccc12` [PM-008, 3′,4′,5′-trihydroxyflavone] are 42 nM, 88% and 100%.
“NGF: NGF, comparator in the PC12 glucose starvation assay”: in the assay on PC12 cells [3], the “survival of glucose-starved cells” value was “approximately 70%”.
For `CCCc1ccc2oc(-c3ccc(O)c(O)c3)c(O)c(=O)c2c1` [PM-012, 2-(3,4-dihydroxyphenyl)-3-hydroxy-6-propyl-4H-chromen-4-one], the EC50 in the assay with HT22 cells [1] (setting [7]) came to 61 nM; in the assay on HT22 cells [1] (setting [8]), 38 nM. The percent protection from IAA-induced cell death at 0.1 µM with HT22 cells [1] (Mus musculus, 20 μM IAA) came to 80%. Further, the “Primary Cortical Cell assay-Glutamate (% protection @ 100 nM)” value in assay [2] came to 82%.
As for `COc1cc(-c2ccc([N+](=O)[O-])c(O)c2)nc2ccccc12` [CMS-111, 4-methoxy-2-(3-hydroxy-4-nitrophenyl)quinoline], the “EC50 in vitro ischemia (μM)” value in the assay with HT22 cells [1] (HT22 cells, 20 μM IAA for 2 hr, viability after 24 hr by MTT) is reported as “no”. Besides, the “GSH (ability to maintain GSH)” value with HT22 cells [4] is “no”. In addition, the “PC12 diff'n (ability to induce PC12 cell differentiation)” value with PC12 cells [5] is given as “no”. Besides, the TEAC in assay [6] was 0.18.
For `COc1cc(-c2ccc(N(C)C)cc2)nc2ccccc12` [CMS-109, 4-methoxy-2-(4-dimethylaminophenyl)quinoline], the EC50 in the assay on HT22 cells [1] (setting [9]) came to 60 nM. In addition, the “GSH (ability to maintain GSH)” value in the assay on HT22 cells [4] is “no”. Further, the “PC12 diff'n (ability to induce PC12 cell differentiation)” value in the assay with PC12 cells [5] was “no”. In addition, in assay [6], the TEAC amounted to 0.06.
`Cc1ccc2oc(-c3ccc(O)c(O)c3)c(O)c(=O)c2c1` [PM-010, 2-(3,4-dihydroxyphenyl)-3-hydroxy-6-methyl-4H-chromen-4-one]: the EC50 with HT22 cells [1] (setting [7]) amounted to 46 nM. The percent protection from IAA-induced cell death at 0.1 µM with HT22 cells [1] (Mus musculus, 20 μM IAA) was 89%. Besides, in assay [2], the “Primary Cortical Cell assay-Glutamate (% protection @ 100 nM)” value is on record as 65%.
Regarding `CC(C)Oc1cc(-c2ccc(O)cc2O)nc2ccccc12` [CMS-084, 4-isopropoxy-2-(2,4-dihydroxyphenyl) quinoline], the half-maximal effective concentration (EC50) in the assay with HT22 cells [1] (setting [9]) and in the assay on HT22 cells [1] (setting [8]) was 210 nM each time. Also, the “GSH (ability to maintain GSH)” value in the assay with HT22 cells [4] is “no”. Further, the “PC12 diff'n (ability to induce PC12 cell differentiation)” value in the assay on PC12 cells [5] is listed as “no”. The same compound registered a TEAC in assay [6] of 0.27.
Turning to `Cc1cc2oc(-c3ccc(O)c(O)c3)c(O)c(=O)c2cc1C` [CMS-027, 2-(3,4-dihydroxyphenyl)-3-hydroxy-6,7-dimethyl-4H-chromen-4-one], the EC50 with HT22 cells [1] (setting [9]) was found to be 500 nM. In addition, the “GSH (ability to maintain GSH)” value with HT22 cells [4] is “no”. For the same compound, the “PC12 diff'n (ability to induce PC12 cell differentiation)” value in the assay on PC12 cells [5] is “no”. Besides, the TEAC in assay [6] was 1.89.
